Literature values as cited in publication PMC3066546, “Development of modified nucleosides that have supremely high anti-HIV activity and low toxicity and prevent the emergence of resistant HIV mutants” (Proceedings of the Japan Academy. Series B, Physical and …, 2011).
Where two headings read alike, the source gives them in different places. One block for each compound: values may come before it.

Legend:
[1] = target: human mitochondrion DNA polymerase (DNA polymerase γ); parameters: method as in PMID 17548498, PMID 18487070; conditions: read-out: EC50 to inhibit the incorporation of dATP
HIV-1LAI = conditions: MTT assay, MT-4 cells
HXB2 (wild type HIV) = system: HXB2 (wild type HIV); parameters: method as in PMID 11087576, PMID 11577734, PMID 15200030; conditions: MAGI assay
M184V drug-resistant HIV = system: M184V drug-resistant HIV; parameters: method as in PMID 11087576, PMID 11577734, PMID 15200030; conditions: MAGI assay
HIV-1 Wild-type = system: HIV-1 Wild-type; parameters: method as in PMID 563233, PMID 17548498, PMID 18487070; conditions: Table 6
[2] = system: 41/215 drug-resistant HIV; parameters: method as in PMID 11087576, PMID 11577734, PMID 15200030; conditions: MAGI assay
adenosine deaminase [3] = conditions: 4′EdA to 4′EdI, 4′Ed2AA to 4′EdG
[4] = target: Y181C (non-nucleoside reverse transcriptase inhibitor-resistant); parameters: method as in PMID 11087576, PMID 11577734, PMID 15200030; conditions: MAGI assay
[5] = system: HIVs isolated from seven heavily drug-experienced patients; parameters: method as in PMID 11302824, PMID 12455229, PMID 15457679; conditions: seven heavily drug-experienced AIDS patients, as efficiently as against wild-type HIV
ICR mice = conditions: for Mortality (%): six-week-old ICR male mice
[6] = system: MDR (multidrug-resistant HIV); conditions: MAGI assay
M184I drug-resistant HIV = system: M184I drug-resistant HIV; parameters: method as in PMID 11087576, PMID 11577734, PMID 15200030; conditions: MAGI assay
[7] = system: 41/69/ 125/SG drug-resistant HIV; parameters: method as in PMID 11087576, PMID 11577734, PMID 15200030; conditions: MAGI assay
[8] = Table 6
KH65R drug-resistant HIV = system: KH65R drug-resistant HIV; parameters: method as in PMID 11087576, PMID 11577734, PMID 15200030; conditions: MAGI assay
L74V drug-resistant HIV = system: L74V drug-resistant HIV; parameters: method as in PMID 11087576, PMID 11577734, PMID 15200030; conditions: MAGI assay
adenosine deaminase [9] = system: adenosine deaminase; parameters: method as in PMID 563233, PMID 17548498, PMID 18487070
[10] = system: calf thymus DNA polymerase α; parameters: method as in earlier work; conditions: calf thymus enzyme
[11] = system: recombinant rat DNA polymerase β; parameters: method as in earlier work; conditions: recombinant rat enzyme
[12] = CEM cells, MT4 cells, MAGI-CCR5 cells
RT of the M184V mutant = system: RT of the M184V mutant; parameters: method as in PMID 15456247; conditions: 4′EddCTP compared with RT of wild-type HIV
HIV-1wild = system: HIV-1wild; parameters: method as in PMID 18487070; conditions: Table 7; read-out: Anti-HIV activity (MAGI assay, µg) HIV-1wild
HIV = system: HIV; parameters: method as in PMID 7764216; conditions: Table 1; for EC50: anti-HIV
HIV-1 M184V = system: HIV-1 M184V; parameters: method as in PMID 563233, PMID 17548498, PMID 18487070; conditions: Table 6
HIV-1M184V = system: HIV-1M184V; parameters: method as in PMID 18487070; conditions: Table 7; read-out: Anti-HIV activity (MAGI assay, µg) HIV-1M184V
HIV-1MDR = system: HIV-1MDR; parameters: method as in PMID 18487070; conditions: Table 7; read-out: Anti-HIV activity (MAGI assay, µg) HIV-1MDR
[13] = parameters: method as in PMID 563233, PMID 17548498, PMID 18487070; conditions: acidic conditions of gastric juices (pH 1.06), 24 ℃
[14] = cytotoxic concentration, Table 1
[15] = intraveneous administration, 1 mg/Kg
[16] = intraveneous administration, 3 mg/Kg
[17] = intraveneous administration, 10 mg/Kg
[18] = intraveneous administration, 100 mg/Kg

EC50 [1]: 200 nM
Compound: Nc1ncnc2c1ncn2[C@H]1CC[C@@H](CO[P@@](=O)(O)O[P@](=O)(O)OP(=O)(O)O)O1 [ddATP, 2′,3′-dideoxyadenosine-5-O-triphosphate, reference compound]

EC50 (HIV-1LAI; Table 2): 30 nM
Compound: C#C[C@]1(CO)O[C@@H](n2cc(F)c(N)nc2=O)C[C@@H]1O [4′-C-ethynyl-2′-deoxy-5-fluorocytidine]
toxicity with other cells (other cells): toxic
CC50 (MT-4 cells; Table 2): > 100000 nM

Compound: C#C[C@]1(CO)O[C@@H](n2cnc3c(N)nc(N)nc32)C[C@@H]1O [4′Ed2AA, 2′-deoxy-4′-C-ethynyl-2-aminoadenosine]
EC50 (HXB2 (wild type HIV)): 1.4 nM
EC50 (M184V drug-resistant HIV): 5.9 nM
CC50 (Hela cells; Table 4, Hela cells): > 200000 nM
EC50 (HIV-1 Wild-type): 0.34 nM
EC50 [2]: 1.7 nM
conversion by adenosine deaminase in mice (adenosine deaminase [3]): easily converted
EC50 [4]: 0.8 nM
potency against HIVs isolated from patients [5]: highly potent
Mortality (%) (ICR mice; [15]): 0%
Mortality (%) (ICR mice; [16]): 0%
Mortality (%) (ICR mice; [17]): 100%
Mortality (%) (ICR mice; [18]): 100%
survival days of mice after administration (ICR mice; intraveneous, 10 mg/Kg): 2 days
survival days of mice after administration (ICR mice; intraveneous, 100 mg/Kg): 1 days
Mortality (%) (ICR mice; oral administration, 1 mg/Kg): 0%
Mortality (%) (ICR mice; oral administration, 3 mg/Kg): 100%
Mortality (%) (ICR mice; oral administration, 10 mg/Kg): 100%
Mortality (%) (ICR mice; oral administration, 100 mg/Kg): 100%
survival days of mice after administration (ICR mice; oral, 3 mg/Kg): 2 days
survival days of mice after administration (ICR mice; oral, 10 mg/Kg): 2 days
survival days of mice after administration (ICR mice; oral, 100 mg/Kg): 1 days
EC50 (HIV-1LAI; Table 3): 0.3 nM
EC50 [6]: 1 nM
EC50 (M184I drug-resistant HIV): 2.7 nM
EC50 [7]: 4.1 nM
CC50 [8]: 900 nM
CC50 (MT-4 cells; Table 3): 820 nM
EC50 (KH65R drug-resistant HIV): 0.35 nM
EC50 (L74V drug-resistant HIV): 0.7 nM

Compound: C#C[C@]1(CO)O[C@@H](n2cnc3c(=O)[nH]c(N)nc32)C[C@@H]1O [4′EdG, 2′-deoxy-4′-C-ethynylguanosine]
EC50 (HXB2 (wild type HIV)): 7 nM
EC50 (M184V drug-resistant HIV): 8 nM
CC50 (Hela cells; Table 4, Hela cells): 52000 nM
EC50 [2]: 19 nM
EC50 [4]: 10 nM
potency against HIVs isolated from patients [5]: highly potent
Mortality (%) (ICR mice; [15]): 0%
Mortality (%) (ICR mice; [16]): 100%
Mortality (%) (ICR mice; [17]): 100%
Mortality (%) (ICR mice; [18]): 100%
survival days of mice after administration (ICR mice; intraveneous, 3 mg/Kg): 4 days
survival days of mice after administration (ICR mice; intraveneous, 10 mg/Kg): 2 days
survival days of mice after administration (ICR mice; intraveneous, 100 mg/Kg): 1 days
Mortality (%) (ICR mice; oral administration, 1 mg/Kg): 0%
Mortality (%) (ICR mice; oral administration, 3 mg/Kg): 100%
Mortality (%) (ICR mice; oral administration, 10 mg/Kg): 100%
Mortality (%) (ICR mice; oral administration, 100 mg/Kg): 100%
survival days of mice after administration (ICR mice; oral, 3 mg/Kg): 4 days
survival days of mice after administration (ICR mice; oral, 10 mg/Kg): 4 days
survival days of mice after administration (ICR mice; oral, 100 mg/Kg): 1 days
EC50 (HIV-1LAI; Table 3): 1.4 nM
EC50 [6]: 4.8 nM
EC50 (M184I drug-resistant HIV): 4.1 nM
EC50 [7]: 6.8 nM
CC50 (MT-4 cells; Table 3): 1500 nM
EC50 (KH65R drug-resistant HIV): 1 nM
EC50 (L74V drug-resistant HIV): 1.2 nM

Compound: C#C[C@]1(CO)O[C@@H](n2cnc3c(N)ncnc32)C[C@@H]1O [4′EdA, 2′-deoxy-4′-C-ethynyladenosine]
EC50 (HXB2 (wild type HIV)): 8 nM
EC50 (M184V drug-resistant HIV): 47 nM
CC50 (Hela cells; Table 4, Hela cells): > 200000 nM
EC50 [2]: 12 nM
time to complete deamination by adenosine deaminase (adenosine deaminase [9]): 60 min
conversion by adenosine deaminase in mice (adenosine deaminase [3]): easily converted to 4′EdI
EC50 [4]: 11 nM
potency against HIVs isolated from patients [5]: highly potent
Mortality (%) (ICR mice; [15]): 0%
Mortality (%) (ICR mice; [16]): 0%
Mortality (%) (ICR mice; [17]): 0%
Mortality (%) (ICR mice; [18]): 0%
Mortality (%) (ICR mice; oral administration, 1 mg/Kg): 0%
Mortality (%) (ICR mice; oral administration, 3 mg/Kg): 0%
Mortality (%) (ICR mice; oral administration, 10 mg/Kg): 0%
Mortality (%) (ICR mice; oral administration, 100 mg/Kg): 0%
survival of mice (ICR mice; single dosage of 3–100 mg kg−1, both intravenous and oral): All eight mice survived
EC50 (HIV-1LAI; Table 2): 9.8 nM
EC50 [6]: 6.2 nM
EC50 (M184I drug-resistant HIV): 22 nM
EC50 [7]: 65 nM
CC50 (MT-4 cells; Table 2): 16000 nM
CC50 (MT-4 cells; Table 3): 16000 nM
EC50 (KH65R drug-resistant HIV): 3.3 nM
EC50 (L74V drug-resistant HIV): 4 nM

chain termination of DNA polymerase β [11]: chain terminator
Compound: CC1(COP(=O)(O)OP(=O)(O)OP(=O)(O)O)OC(n2ccc(N)nc2=O)CC1O (stereo not drawn) [4′MdCTP]
chain termination of DNA polymerase α [10]: chain terminator

Compound: C#C[C@]1(CO)O[C@@H](n2ccc(N)nc2=O)C[C@@H]1O [4′EdC, 4′-C-ethynyl-2′-deoxycytidine]
EC50 (HXB2 (wild type HIV)): 1.2 nM
EC50 (M184V drug-resistant HIV): 2.4 nM
EC50 [2]: 6 nM
EC50 [4]: 2.1 nM
EC50 (HIV-1LAI; Table 2, listed as 4′-C-ethynyl-2′-deoxycytidine): 4.8 nM
EC50 (M184I drug-resistant HIV): 2.6 nM
EC50 [7]: 15 nM
EC50 (KH65R drug-resistant HIV): 0.8 nM
EC50 (L74V drug-resistant HIV): 1.3 nM

Compound: C#C[C@]1(CO)O[C@@H](n2ccc(N)nc2=O)[C@@H](O)[C@@H]1O [4′EaraC, 4′-C-ethynyl D-arabino-furanosyl cytosine]
EC50 (HXB2 (wild type HIV)): 7.1 nM
EC50 (M184V drug-resistant HIV): 710 nM
CC50 (Hela cells; Table 4, Hela cells): > 200000 nM
EC50 [2]: 26 nM
EC50 [4]: 16 nM
EC50 (HIV-1LAI; Table 2): 43 nM
EC50 [6]: 7.9 nM
EC50 (M184I drug-resistant HIV): 480 nM
EC50 [7]: 170 nM
CC50 (MT-4 cells; Table 2): 2000 nM
EC50 (KH65R drug-resistant HIV): 15 nM
EC50 (L74V drug-resistant HIV): 26 nM

chain termination of DNA polymerase β [11]: chain terminator
Compound: CC1(COP(=O)(O)OP(=O)(O)OP(=O)(O)O)OC(n2ccc(N)nc2=O)C(O)C1O (stereo not drawn) [4′MAraCTP]
chain termination of DNA polymerase α [10]: chain terminator

Compound: 3′-azido-3′-deoxythymidine-5′-O-phosphate [AZTTP, reference compound]
intracellular half-life (T1/2) [12]: 3 h

Compound: C#CC1(COP(=O)(O)OP(=O)(O)OP(=O)(O)O)CCC(n2ccc(N)nc2=O)O1 (single isomer, unassigned) [L-isomer of 4′EddCTP]
activity against RT of the M184V mutant (RT of the M184V mutant): not active

Compound: Cc1cn([C@H]2C[C@H](N=[N+]=[N-])[C@@H](CO)O2)c(=O)[nH]c1=O [AZT, 3′-azido-3′-deoxythymidine, reference compound]
EC50 (HXB2 (wild type HIV)): 22 nM
EC50 (M184V drug-resistant HIV): 10 nM
EC50 (HIV-1wild): 170 nM
CC50 (Hela cells): > 100000 nM
EC50 (HIV-1 Wild-type): 3.2 nM
EC50 [2]: 300 nM
EC50 (HIV): 1 nM
EC50 [4]: 14 nM
EC50 (HIV-1 M184V): 16 nM
EC50 (HIV-1LAI; Table 2): 3.2 nM
EC50 (HIV-1LAI; Table 3): 3.2 nM
EC50 [6]: 15300 nM
EC50 (HIV-1M184V): 130 nM
EC50 (HIV-1MDR): 74300 nM
EC50 (M184I drug-resistant HIV): 17 nM
EC50 [7]: 1600 nM
CC50 (MT-4 cells): 29400 nM
EC50 (KH65R drug-resistant HIV): 20 nM
EC50 (L74V drug-resistant HIV): 20 nM

Compound: Nc1ncnc2c1ncn2[C@H]1CC[C@@H](CO)O1 [ddA, 2′,3′-dideoxyadenosine, reference compound]
time to complete decomposition [13]: 5 min
CC50 [14]: > 500000 nM
SI (CC50/EC50) (HIV): >11
EC50 (HIV): 47000 nM
